Measured values taken from patent US20110160249A1, “5-LIPOXYGENASE-ACTIVATING PROTEIN INHIBITOR” (priority 2008, published 2011).
Where “and” joins values, the source holds several entries; their conditions need not be identical. Identical values can stand only once.

Tests used:
[1] = Single dose kinetics in beagle dogs; format: in vivo; settings: female, dog, plasma, Fasted
[2] = Thermodynamic Aqueous Solubility by HPLC; format: physicochemical; settings: water, 25° C., 24 hours
Method: Aqueous solubility was determined by suspending sufficient compound in water to give a maximum final concentration of ≧10 mg·ml^−1 of the parent free-form of the compound. The suspension was equilibrated at 25° C. for 24 hours then the pH was measured. The suspension was then filtered through a glass fibre C filter into a 96 well plate. The filtrate was then diluted by a factor of 101. Quantitation was by HPLC with reference to a standard solution of approximately 0.1 mg·ml^−1 in DMSO. Different volumes of the standard, diluted and undiluted sample solutions were injected. The solubility was calculated using the peak areas determined by integration of the peak found at the same retention time as the principal peak in the standard injection.
Analysis was performed on an Agilent HP1100 series system equipped with a diode array detector and using ChemStation software vB.02.01-SR1.

[3] = test system: LTB4 in Rat Whole Blood; assay: Rat whole blood LTB4 inhibition assay; format: cell-based; settings: mean of 5 tests
[4] = test system: CYP3A4; assay: Cellular Cytochrome P450 induction, CYP3A4; settings: tested at 10 μM, cryopreserved human hepatocytes
[5] = target: T1, human FLAP (Homo sapiens, UniProt P20292); assay: FLAP binding assay; settings: individual tests 1-8; read-out: IC50 (nM), Inhibition of FLAP Radioligand Binding
T1 sequence (P20292 1-161): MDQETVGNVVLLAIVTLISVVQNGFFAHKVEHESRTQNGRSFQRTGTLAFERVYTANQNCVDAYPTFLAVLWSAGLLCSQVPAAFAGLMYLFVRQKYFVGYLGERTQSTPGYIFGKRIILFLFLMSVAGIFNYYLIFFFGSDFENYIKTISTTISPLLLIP

[6] = test system: LTB4 in Human Whole Blood; assay: Human blood LTB4 inhibition assay; format: cell-based; settings: mean of 8 tests
Method: A non-limiting example of such a human blood LTB4 inhibition assay is as follows: Blood was drawn from consenting, human volunteers into heparinized tubes and 125 μL aliquots added to wells containing 2.5 μL 50% dimethylsulfoxide (vehicle) or 2.5 μL drug in 50% dimethylsulfoxide. Samples were incubated for 15 minutes at 37° C. 2 μL calcium ionophore […] (from a 50 mM dimethylsulfoxide stock diluted just prior to the assay in Flanks balanced salt solution (Invitrogen)) to 1.25 mM) was added, solutions mixed and incubated for 30 minutes at 37° C. Samples were centrifuged at 1,000 rpm (−200×g) for 10 minutes at 4° C., plasma removed and a 1:100 dilution assayed for LTB4 concentration using ELISA (Assay Designs). Drug concentrations to achieve 50% inhibition (IC50's) of vehicle LTB4 were determined by nonlinear regression (Graphpad Prism) of % inhibition versus log drug is concentration.

[7] = mouse, in vivo, po, 250 mg/kg/day
[8] = test system: urinary LTE4 production; assay: Phase I study, urinary LTE4; format: in vivo, human; settings: for Emax: Homo sapiens
Description: Study Design: Single center, double-blind, randomized, placebo-controlled, single ascending dose followed by multiple ascending dose study.
Sample Size: (1) Single Dose Phase: eight (8) subjects (6 active, 2 placebo) per dose level; up to 5 dose levels are planned (a total of 40 subjects if all 5 dose levels are completed); and (2) Multiple Dose Phase: eight (8) subjects (6 active, 2 placebo) per dose level; up to 4 dose levels are planned (a total of 32 subjects if all 4 dose levels are completed).
Formulations: Compound 2 was supplied as an oral powder for reconstitution. Placebo solution matched. […] The placebo differed only in the absence of the active.
The following dosing cohorts were used:
Routes of Administration: All doses were administered orally with approximately 100 mL of water rinse. Subjects were fasted for at least 8 hours prior to dosing and for 2 hours after dosing. For BID dosing in the Multiple Dose Phase, when applicable, subjects were fasted for at least 2 hours prior to the second daily dose.
Plasma concentrations of Compound 1 were determined using a validated LC/MS method. Whole blood ionophore-stimulated leukotriene LTB4 and urinary LTE4 production were assayed by ELISA and mass spectrometry, respectively.
Analysis of Samples: Concentrations of Compound 1 was determined in plasma samples collected from subjects. Similarly, concentrations of LTB4 in plasma and urinary LTE4 were determined in blood and urine samples collected.

[9] = test system: production of LTB4 after ionophore stimulation in washed human leukocytes; assay: LTB4 inhibition in washed human leukocytes; format: cell-based; settings: Leukocyte, mean of 4 tests
[10] = target: CYP 1A2 (Homo sapiens, UniProt P05177); assay: Extracellular Cytochrome P450 inhibition, 1A2
Chain of CYP 1A2 (P05177 whole entry): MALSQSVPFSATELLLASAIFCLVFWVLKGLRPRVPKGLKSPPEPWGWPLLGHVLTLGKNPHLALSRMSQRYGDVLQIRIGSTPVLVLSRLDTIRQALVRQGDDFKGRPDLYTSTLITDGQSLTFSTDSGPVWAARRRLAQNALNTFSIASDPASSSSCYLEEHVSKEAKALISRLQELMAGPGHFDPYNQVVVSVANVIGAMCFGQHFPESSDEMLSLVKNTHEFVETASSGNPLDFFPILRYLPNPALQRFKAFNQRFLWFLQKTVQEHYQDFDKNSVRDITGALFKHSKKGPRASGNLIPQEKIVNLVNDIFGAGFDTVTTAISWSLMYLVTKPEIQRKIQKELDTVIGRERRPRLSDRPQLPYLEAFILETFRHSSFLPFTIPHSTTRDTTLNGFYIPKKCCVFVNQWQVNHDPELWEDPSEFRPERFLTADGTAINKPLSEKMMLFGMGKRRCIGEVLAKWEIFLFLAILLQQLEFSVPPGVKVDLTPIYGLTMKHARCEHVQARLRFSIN
Method: Aliquots of this mixture to (89 μL) were delivered to each well of a 96-well polypropylene plate which contained an aliquot of inhibitor (1 μL). Final solvent concentrations were 1% (v/v) or less. Incubations were commenced with the addition of 10 μL β-NADPH (10 mM stock) to a final volume of 100 μL. […] Samples were centrifuged, and supernatant was transferred for LC-MS analysis.

[11] = IV, 4:1 PEG400:Water, 0.67 mg/kg

Compound: CCOc1ccc(-c2ccc(Cn3c(CC(C)(C)C(=O)[O-])c(SC(C)(C)C)c4cc(OCc5ccc(C)cn5)ccc43)cc2)cn1.[Na+] [Compound 2, sodium 3-[3-(tert-butylsulfanyl)-1-[4-(6-ethoxy-pyridin-3-yl)benzyl]-5-(5-methyl-pyridin-2-yl-methoxy)-1H-indol-2-yl]-2,2-dimethylpropionate]
- AUC(0-inf) [1, 11]: 17600 ng·h/mL
- Cmax [1, 11]: 12000 ng/mL
- Tmax [1, 11]: 1.02 min
- bioavailability [1, 11]: 100%
- clearance ([1]; IV, 4:1 PEG400:Water, 0.67 mg/kg, read-out: CLp): 0.6 mL/min/kg
- Vd ([1]; IV, 4:1 PEG400:Water, 0.67 mg/kg, read-out: VdSS): 0.2 L/kg
- Cmax ([1]; Oral, 0.5% Methylcellulose, 5 mg/kg): 12400 ng/mL
- Concentration of filtrate (as mg/mL of free base) [2]: greater than 10 mg/mL
- pH of unfiltered saturated solution [2]: above 9
- IC50 [3]: 239 nM
- IC90 [3]: 1630 nM
- induction of CYP3A4 [4]: No apparent induction
- IC50 [5]: 4.9 nM and 4.1 nM and 1.8 nM
- IC90 [6]: 1310 nM
- necropsy, gross abnormalities [7]: no gross abnormalities
- Emax ([8]; 24 h, Multiple dose part, Day 1, 10 mg): 54.1%
- Emax ([8]; 24 h, Multiple dose part, Day 1, 50 mg): 94%
- Emax ([8]; 24 h, Multiple dose part, Day 1, 150 mg): 98.3%
- Emax ([8]; 24 h, Multiple dose part, Day 1, 450 mg): 85.7%
- Emax ([8]; 24 h, Single dose part, Day 1, 50 mg): 86.3%
- Emax ([8]; 24 h, Single dose part, Day 1, 150 mg): 97.4%
- Emax ([8]; 24 h, Single dose part, Day 1, 300 mg): 97%
- Emax ([8]; 24 h, Single dose part, Day 1, 600 mg): 96%
- Emax ([8]; 24 h, Single dose part, Day 1, 1000 mg): 96.6%
- Emax ([8]; 264 h, Multiple dose part, Day 11, 10 mg): 88.6%
- Emax ([8]; 264 h, Multiple dose part, Day 11, 50 mg): 97.7%
- Emax ([8]; 264 h, Multiple dose part, Day 11, 150 mg): 97.5%
- Emax ([8]; 264 h, Multiple dose part, Day 11, 450 mg): 98.4%
- Tmax (h), LTE4 ([8]; Multiple dose part, Day 1, 10 mg): 24.00 h
- Tmax (h), LTE4 ([8]; Multiple dose part, Day 1, 50 mg): 16.00 h
- Tmax (h), LTE4 ([8]; Multiple dose part, Day 1, 150 mg): 24.00 h
- Tmax (h), LTE4 ([8]; Multiple dose part, Day 1, 450 mg): 24.00 h
- Tmax (h), LTE4 ([8]; Multiple dose part, Day 11, 10 mg): 12.00 h
- Tmax (h), LTE4 ([8]; Multiple dose part, Day 11, 50 mg): 9.00 h
- Tmax (h), LTE4 ([8]; Multiple dose part, Day 11, 150 mg): 24.00 h
- Tmax (h), LTE4 ([8]; Multiple dose part, Day 11, 450 mg): 12.00 h
- Tmax (h), LTE4 ([8]; Single dose part, Day 1, 50 mg): 16.00 h
- Tmax (h), LTE4 ([8]; Single dose part, Day 1, 150 mg): 16.00 h
- Tmax (h), LTE4 ([8]; Single dose part, Day 1, 300 mg): 24.00 h
- Tmax (h), LTE4 ([8]; Single dose part, Day 1, 600 mg): 24.00 h
- Tmax (h), LTE4 ([8]; Single dose part, Day 1, 1000 mg): 16.00 h
- IC50 [9]: 0.44 nM
- IC50 [10]: > 40 µM
